Test results reported in US11358969B2, “Indole AHR inhibitors and uses thereof” (Ikena Oncology, Inc., priority 2017, dated 2022).
One block for each molecule: values may come before it.

What was measured:
[1] = Mouse Pharmacokinetic Study (Example 1C); type: in vivo; conditions: mouse, plasma, CD-1 mice; for Vd: read-out: Vdss
Description: Formulations of compounds set forth in Table 4 were administered intravenously or orally via gavage to CD-1 mice. Typically, at 0.167, 0.5, 1, 2, 4, 6, 12, and 24 hours post-dose, blood was collected and processed to plasma by centrifugation and stored at −80° C. until analysis.
Internal standard was added to each sample prior to protein precipitation with acetonitrile. The precipitates were filtered through a Phree phospholipid removal filter plate and the samples were analyzed by LC/MS/MS. A standard curve was prepared in plasma from typically from 1.0 ng/mL to 3000 ng/mL and processed in the same manner as the samples. Sample analysis was typically performed on a suitable LC/MS/MS system fitted with an analytical UPLC column and compounds eluted from the analytical column with a gradient from 30-95% 0.1% formic acid (v/v) in ACN: 0.1% formic acid (v/v) in water. Mass spectrometric detection of test compound and the internal standard was performed by MRM in positive mode. The pharmacokinetics of each compound were analyzed by Phoenix WinNonlin software (Pharsight, St. Louis, Mo.) via non-compartmental analysis.

[2] = target: T1, AHR (UniProt P35869); assay: DRE-Luciferase Reporter Assay (Alternate Method) (Example 1B); type: cell-based, murine or human; conditions: cell line and AHR activating ligand not specified
T1 construct: IC50
T1 sequence (P35869 1-848): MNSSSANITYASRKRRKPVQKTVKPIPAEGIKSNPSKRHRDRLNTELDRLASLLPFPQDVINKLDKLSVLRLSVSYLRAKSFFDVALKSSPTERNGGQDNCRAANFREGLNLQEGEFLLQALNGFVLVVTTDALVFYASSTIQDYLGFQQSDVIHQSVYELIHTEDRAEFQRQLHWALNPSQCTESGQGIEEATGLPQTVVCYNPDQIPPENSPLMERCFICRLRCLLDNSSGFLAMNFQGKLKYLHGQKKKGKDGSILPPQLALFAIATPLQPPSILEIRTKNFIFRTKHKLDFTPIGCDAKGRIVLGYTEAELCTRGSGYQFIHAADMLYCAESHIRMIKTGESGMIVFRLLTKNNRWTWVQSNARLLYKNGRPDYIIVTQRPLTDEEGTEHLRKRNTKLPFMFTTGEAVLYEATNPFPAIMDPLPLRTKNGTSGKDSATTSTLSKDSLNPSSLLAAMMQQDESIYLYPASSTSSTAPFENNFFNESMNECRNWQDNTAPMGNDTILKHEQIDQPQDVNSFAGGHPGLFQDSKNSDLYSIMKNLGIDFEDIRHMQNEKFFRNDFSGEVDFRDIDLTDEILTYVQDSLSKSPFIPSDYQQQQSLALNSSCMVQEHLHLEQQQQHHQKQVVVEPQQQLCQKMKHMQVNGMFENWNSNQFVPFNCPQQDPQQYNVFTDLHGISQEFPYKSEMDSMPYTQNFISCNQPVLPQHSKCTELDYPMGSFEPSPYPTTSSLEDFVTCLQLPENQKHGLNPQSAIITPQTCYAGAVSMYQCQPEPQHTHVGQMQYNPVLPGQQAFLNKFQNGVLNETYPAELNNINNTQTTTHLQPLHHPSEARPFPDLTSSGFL

bioavailability ([1]; po, 30 mg/kg): 3% | AUC(0-inf) ([1]; iv, 3 mg/kg): 368 ng·h/mL | AUC(0-t) ([1]; iv, 3 mg/kg): 364 ng·h/mL | clearance ([1]; iv, 3 mg/kg): 136 mL/min/kg | half-life ([1]; iv, 3 mg/kg): 0.6 h | Vd ([1]; iv, 3 mg/kg): 4.9 L/kg | AUC(0-inf) ([1]; po, 30 mg/kg): 121 ng·h/mL | AUC(0-t) ([1]; po, 30 mg/kg): 107 ng·h/mL | Cmax ([1]; po, 30 mg/kg): 41 ng/mL | Tmax ([1]; po, 30 mg/kg): 1 h | half-life ([1]; po, 30 mg/kg): 1.9 h
SMILES: C[C@H](O)c1cnn2c(N[C@@H]3CCc4[nH]c5ccccc5c4C3)nc(-c3cncc(F)c3)nc12 [I-118]

IC50 [2]: < 500 nM | bioavailability ([1]; po, 30 mg/kg): 100% | AUC(0-inf) ([1]; iv, 3 mg/kg): 1650 ng·h/mL | AUC(0-t) ([1]; iv, 3 mg/kg): 1460 ng·h/mL | clearance ([1]; iv, 3 mg/kg): 30 mL/min/kg | half-life ([1]; iv, 3 mg/kg): 8.8 h | Vd ([1]; iv, 3 mg/kg): 17 L/kg | AUC(0-inf) ([1]; po, 30 mg/kg): 14700 ng·h/mL | AUC(0-t) ([1]; po, 30 mg/kg): 13700 ng·h/mL | Cmax ([1]; po, 30 mg/kg): 1870 ng/mL | Tmax ([1]; po, 30 mg/kg): 1 h | half-life ([1]; po, 30 mg/kg): 6.1 h
SMILES: Fc1cncc(-c2nc(N[C@@H]3CCc4[nH]c5ccccc5c4C3)c3ncccc3n2)c1 [I-126, (3R)—N-[2-(5-Fluoro-3-pyridyl)pyrido[3,2-d]pyrimidin-4-yl]-2,3,4,9-tetrahydro-1H-carbazol-3-amine]

IC50 [2]: < 500 nM | bioavailability ([1]; po, 30 mg/kg): 53% | AUC(0-inf) ([1]; iv, 3 mg/kg): 1620 ng·h/mL | AUC(0-t) ([1]; iv, 3 mg/kg): 1340 ng·h/mL | clearance ([1]; iv, 3 mg/kg): 31 mL/min/kg | half-life ([1]; iv, 3 mg/kg): 14 h | Vd ([1]; iv, 3 mg/kg): 22 L/kg | AUC(0-inf) ([1]; po, 30 mg/kg): 7530 ng·h/mL | AUC(0-t) ([1]; po, 30 mg/kg): 7030 ng·h/mL | Cmax ([1]; po, 30 mg/kg): 1040 ng/mL | Tmax ([1]; po, 30 mg/kg): 2 h | half-life ([1]; po, 30 mg/kg): 6.4 h
SMILES: CN(C)c1cnn2c(N[C@@H]3CCc4[nH]c5ccccc5c4C3)nc(-c3cncc(F)c3)nc12 [I-129, 2-(5-Fluoro-3-pyridyl)-N8,N8-dimethyl-N4-[(3R)-2,3,4,9-tetrahydro-1H-carbazol-3-yl]pyrazolo[1,5-a][1,3,5]triazine-4,8-diamine]

IC50 [2]: < 500 nM | bioavailability ([1]; po, 30 mg/kg): 53% | AUC(0-inf) ([1]; iv, 3 mg/kg): 1270 ng·h/mL | AUC(0-t) ([1]; iv, 3 mg/kg): 1220 ng·h/mL | clearance ([1]; iv, 3 mg/kg): 39 mL/min/kg | half-life ([1]; iv, 3 mg/kg): 2.6 h | Vd ([1]; iv, 3 mg/kg): 7.5 L/kg | AUC(0-inf) ([1]; po, 30 mg/kg): 6690 ng·h/mL | AUC(0-t) ([1]; po, 30 mg/kg): 6620 ng·h/mL | Cmax ([1]; po, 30 mg/kg): 936 ng/mL | Tmax ([1]; po, 30 mg/kg): 2 h | half-life ([1]; po, 30 mg/kg): 3.5 h
SMILES: N#Cc1cnn2c(N[C@@H]3CCc4[nH]c5ccccc5c4C3)nc(-c3cncc(F)c3)nc12 [I-130, 2-(5-Fluoro-3-pyridyl)-4-[[(3R)-2,3,4,9-tetrahydro-1H-carbazol-3-yl]amino]pyrazolo[1,5-a][1,3,5]triazine-8-carbonitrile]

IC50 [2]: < 500 nM | bioavailability ([1]; po, 30 mg/kg): 19% | AUC(0-inf) ([1]; iv, 3 mg/kg): 2010 ng·h/mL | AUC(0-t) ([1]; iv, 3 mg/kg): 1920 ng·h/mL | clearance ([1]; iv, 3 mg/kg): 25 mL/min/kg | half-life ([1]; iv, 3 mg/kg): 8.2 h | Vd ([1]; iv, 3 mg/kg): 6.6 L/kg | AUC(0-inf) ([1]; po, 30 mg/kg): 3840 ng·h/mL | AUC(0-t) ([1]; po, 30 mg/kg): 3780 ng·h/mL | Cmax ([1]; po, 30 mg/kg): 953 ng/mL | Tmax ([1]; po, 30 mg/kg): 0.5 h | half-life ([1]; po, 30 mg/kg): 3.5 h
SMILES: CC(C)c1cnn2c(N[C@H]3CCc4[nH]ccc4C3)nc(-c3cncc(F)c3)nc12 [I-137a, 2-(5-fluoro-3-pyridyl)-8-isopropyl-N-[(5S)-4,5,6,7-tetrahydro-1H-indol-5-yl]pyrazolo[1,5-a][1,3,5]triazin-4-amine]

IC50 [2]: < 500 nM | bioavailability ([1]; po, 30 mg/kg): 28% | AUC(0-inf) ([1]; iv, 3 mg/kg): 1350 ng·h/mL | AUC(0-t) ([1]; iv, 3 mg/kg): 1220 ng·h/mL | clearance ([1]; iv, 3 mg/kg): 37 mL/min/kg | half-life ([1]; iv, 3 mg/kg): 11.2 h | Vd ([1]; iv, 3 mg/kg): 16.6 L/kg | AUC(0-inf) ([1]; po, 30 mg/kg): 3830 ng·h/mL | AUC(0-t) ([1]; po, 30 mg/kg): 3630 ng·h/mL | Cmax ([1]; po, 30 mg/kg): 476 ng/mL | Tmax ([1]; po, 30 mg/kg): 2 h | half-life ([1]; po, 30 mg/kg): 5.9 h
SMILES: CC(C)c1cnn2c(N[C@@H]3CCc4[nH]ccc4C3)nc(-c3cncc(F)c3)nc12 [I-137b, 2-(5-fluoro-3-pyridyl)-8-isopropyl-N-[(5R)-4,5,6,7-tetrahydro-1H-indol-5-yl]pyrazolo[1,5-a][1,3,5]triazin-4-amine]

IC50 [2]: < 500 nM | bioavailability ([1]; po, 30 mg/kg): 3% | AUC(0-inf) ([1]; iv, 3 mg/kg): 842 ng·h/mL | AUC(0-t) ([1]; iv, 3 mg/kg): 825 ng·h/mL | clearance ([1]; iv, 3 mg/kg): 59 mL/min/kg | half-life ([1]; iv, 3 mg/kg): 1.2 h | Vd ([1]; iv, 3 mg/kg): 4.7 L/kg | AUC(0-inf) ([1]; po, 30 mg/kg): 249 ng·h/mL | AUC(0-t) ([1]; po, 30 mg/kg): 237 ng·h/mL | Cmax ([1]; po, 30 mg/kg): 82 ng/mL | Tmax ([1]; po, 30 mg/kg): 0.5 h | half-life ([1]; po, 30 mg/kg): 1.2 h
SMILES: Cc1cnn2c(N[C@H]3CCc4[nH]ccc4C3)nc(-c3cncc(F)c3)nc12 [I-259a, 2-(5-fluoro-3-pyridyl)-8-methyl-N-[(5S)-4,5,6,7-tetrahydro-1H-indol-5-yl]pyrazolo[1,5-a][1,3,5]triazin-4-amine]

IC50 [2]: < 500 nM
SMILES: CC(C)c1cnn2c(N[C@@H]3CCc4[nH]c5ccccc5c4C3)nc(-c3cncnc3)nc12 [I-270, (3R)—N-(8-Isopropyl-2-pyrimidin-5-yl-pyrazolo[1,5-a][1,3,5]triazin-4-yl)-2,3,4,9-tetrahydro-1H-carbazol-3-amine]

IC50 [2]: > 1500 nM
SMILES: CC(C)c1cnn2c(NC3CCc4[nH]c5ccccc5c4C3)nc(-c3ccc4c(c3)OC(F)(F)O4)nc12 (stereo not shown) [I-271]

IC50 [2]: > 1500 nM
SMILES: CC(C)c1cnn2c(NC3CCc4[nH]c5ccccc5c4C3)nc(-c3ccc(=O)n(C)c3)nc12 (stereo not shown) [I-272]

IC50 [2]: 1000 to 1500 nM
SMILES: Fc1cncc(-c2nc(NC3CCc4[nH]c5ccccc5c4C3)n3ncc(-c4ncc[nH]4)c3n2)c1 (stereo not shown) [I-273]

IC50 [2]: < 500 nM
SMILES: Fc1cncc(-c2nc(NC3CCc4[nH]c5ccccc5c4C3)n3ncc(-c4cnc[nH]4)c3n2)c1 (stereo not shown) [I-274]

IC50 [2]: < 500 nM
SMILES: O=Cc1cnn2c(NC3CCc4[nH]c5ccccc5c4C3)nc(-c3cncc(F)c3)nc12 (stereo not shown) [I-275]

IC50 [2]: < 500 nM
SMILES: Fc1cncc(-c2nc(NC3CCc4[nH]c5ccccc5c4C3)n3ncc(CNC4CC4)c3n2)c1 (stereo not shown) [I-276]

IC50 [2]: < 500 nM
SMILES: CNCc1cnn2c(NC3CCc4[nH]c5ccccc5c4C3)nc(-c3cncc(F)c3)nc12 (stereo not shown) [I-277]

IC50 [2]: < 500 nM
SMILES: OCc1cnn2c(NC3CCc4[nH]c5ccccc5c4C3)nc(-c3cncc(F)c3)nc12 (stereo not shown) [I-278]

IC50 [2]: > 1500 nM
SMILES: CC(C)c1cnn2c(NC3CCc4[nH]c5ccccc5c4C3)nc(-c3cncc(C(F)(F)F)c3)nc12 (stereo not shown) [I-279]

IC50 [2]: > 1500 nM
SMILES: CC(C)c1cnn2c(NC3CCc4[nH]c5ccccc5c4C3)nc(-c3ccc(C(F)(F)F)nc3)nc12 (stereo not shown) [I-280]

IC50 [2]: < 500 nM
SMILES: CC(C)c1cnn2c(NC3CCc4[nH]c5ccccc5c4C3)nc(-n3ccnc3)nc12 (stereo not shown) [I-281]

IC50 [2]: < 500 nM
SMILES: C#Cc1cnn2c(NC3CCc4[nH]c5ccccc5c4C3)nc(-c3cncc(F)c3)nc12 (stereo not shown) [I-282]

IC50 [2]: > 1500 nM
SMILES: CNC(=O)c1cnn2c(NC3CCc4[nH]c5ccccc5c4C3)nc(-c3cncc(F)c3)nc12 (stereo not shown) [I-283]

IC50 [2]: 500 to 1000 nM
SMILES: CC(C)c1cnn2c(NC3CCc4[nH]c5ccccc5c4C3)nc(-c3ccnnc3)nc12 (stereo not shown) [I-284]

IC50 [2]: > 1500 nM
SMILES: O=C(NC1CC1)c1cnn2c(NC3CCc4[nH]c5ccccc5c4C3)nc(-c3cncc(F)c3)nc12 (stereo not shown) [I-285]

IC50 [2]: < 500 nM
SMILES: CON(C)C(=O)c1cnn2c(NC3CCc4[nH]c5ccccc5c4C3)nc(-c3cncc(F)c3)nc12 (stereo not shown) [I-286]

IC50 [2]: > 1500 nM
SMILES: O=C(O)c1cnn2c(NC3CCc4[nH]c5ccccc5c4C3)nc(-c3cncc(F)c3)nc12 (stereo not shown) [I-287]

IC50 [2]: < 500 nM
SMILES: CN(C)C(=O)c1cnn2c(NC3CCc4[nH]c5ccccc5c4C3)nc(-c3cncc(F)c3)nc12 (stereo not shown) [I-288]

IC50 [2]: < 500 nM
SMILES: CC(C)c1cnn2c(NCCc3n[nH]c4ccccc34)nc(-c3cncc(F)c3)nc12 [I-289]
